Assays:
primary cortical neurons = test: SDS-PAGE and immunoblotting of marker proteins in membrane and cytosolic fractions; assay type: cell-based, mouse; conditions: Aβ 500 nM, 4 h, normalized to Actin/GAPDH, fold change wrt control cells, mean ± S.E.M., n = 6, N = 3; for CTSD mature* level / CTSD pro* level / EEA1* level / RAB5* level / RAB7* level / RAB11* level / SQSTM1/p62* level / UBQ* level: cytosolic fraction; for ATG3 level / ATG5 level / ATG12–ATG5 level / ATG14 level / LAMP2 level / LC3-I level / LC3-II level / ULK1/Atg1 level: membrane fraction
Experimental: [Worded in the source for another cell line; used here, by the source, with some conditions changed.] (§1) SH-SY5Y cells seeded on D1, were treated with Aβ variants (1 μM) on D3 in DMEM/F-12 media without serum and antibiotics. Control treatment included treatment with equal volume of 10 mM NaOH solution used for preparing the Aβ stock solutions, in respective cell culture medium. SH-SY5Y cells, after 16 h of transient expression of the reporter constructs, were treated with different Aβ variants, autophagy modulator substrates and respective controls in DMEM/F-12, FCS^− PS^− media for the mentioned time points. After treatment, cells were washed twice with PBS and with 0.025% trypsin-EDTA in PBS to get rid of cell bound Aβ, followed by subsequent washings with PBS again. Cells were either collected by scraping using a cell-scraper or fixed with 4% PFA-PBS for 15 min at RT, for further immunocytochemistry experiments. Collected treatment media was centrifuged at 1000 g for 5 min, pellet discarded and supernatant frozen at −20°C until further usage.
(§2) Cells were collected by scraping and mechanically homogenized in hypotonic D buffer (10 mM Tris-HCl, pH 7.4, 10 mM NaCl, 0.1 mM EGTA, 25 mM glycerol 2-phosphate, 1 mM DTT) containing protease and phosphatase inhibitors by repeated suspension through a 23 G × 1” needle. Post-nuclear supernatant (PNS) was collected by centrifugation of the mechanically homogenized cellular material at 2,000 g for 5 min. The pellet was the nuclear material. Nuclear pellet was then resuspended in Buffer C (5 mM HEPES, 1.5 mM MgCl2, 0.2 mM EDTA, 0.5 mM DTT, 0.05% NP40 [Sigma Aldrich, 18876], 30% glycerol, pH 7.9) containing protease and phosphatase inhibitors, ultrasonicated at minimum voltage, three currents in four cycles, followed by repetitive cooling of samples on ice. The nuclear fraction was the supernatant collected after centrifugation at 16,100 g for 15 min. The PNS collected from the first step was centrifuged at 16,100 g for 60 min, and supernatant was used as the crude cytosolic fraction. The pellet contained the membrane materials, which were re-homogenized in hypotonic D buffer and again centrifuged at 16,100 g for 60 min. The supernatant was discarded, pellet was resuspended in STEN-lysis buffer (20 mM Tris-HCl, pH 7.5, 150 mM NaCl, 1 mM EDTA, 1 mM EGTA, 1% Triton X-100, 2.5 mM sodium pyrophosphate [Sigma Aldrich, P1835], 1 mM β-glycerophosphate [Sigma Aldrich, G9422]) containing protease and phosphatase inhibitors, and the membrane fraction was the supernatant collected after centrifugation at 16,100 g for 15 min. The crude cytosolic fraction was then further fractionated at 100,000 g for 70 min at 4°C under vacuum. The resultant supernatant was the soluble cytosolic fraction. The pellet was resuspended in STEN lysis buffer and centrifuged at 16,100 g for 15 min. The resultant supernanant represented the insoluble cytosolic fraction.
(§3) For different cellular fractions prepared as described earlier, the protein content was estimated using the standard Pierce™ BCA protein assay kit (ThermoFisher Scientific, 23225). For direct comparison between the samples, equal amount of protein was loaded. Samples were dissolved in Laemmli buffer and were boiled at 95°C for 5 min. They were loaded on a precast 4–12% NuPage® Bis-Tris gels (Life technologies, NP033–5/6, WG140–2/3). Gels and prestained protein molecular weight markers were purchased from Life technologies. The separated proteins were electro-transferred onto a 0.2-μm nitrocellulose (NT) membrane (Amersham, 1060001) for 1 h 45 min. After blotting, the NT membranes were boiled in PBS for 10 min. Ponceau staining was done to monitor protein loading of samples. The blots were then incubated in 5% skim milk in TBS-T (TBS [50 mM Tris-HCl, pH 7.5, 150 mM NaCl] containing 0.1% Tween 20 [Sigma Aldrich, P1379]) for 1 h at RT. Blots were incubated overnight at 4°C in the primary antibody solution (respective dilutions in TBS-T, Table 1). Blots were washed and incubated with appropriate secondary antibodies conjugated either with HRP or fluorescent dyes for 1 h. […]

SH-SY5Y cells = test: Quantitative western immunoblotting of autophagy and endo-lysosomal proteins; assay type: cell-based, human; conditions: Aβ 1 µM, 24 h, n = 6, N = 3
Experimental: as §1, §2, §3

Substance | CTSD mature* level (primary cortical neurons) [fold change] | CTSD pro* level (primary cortical neurons) [fold change] | EEA1* level (primary cortical neurons) [fold change] | RAB5* level (primary cortical neurons) [fold change] | RAB7* level (primary cortical neurons) [fold change] | RAB11* level (primary cortical neurons) [fold change] | SQSTM1/p62* level (primary cortical neurons) [fold change] | UBQ* level (primary cortical neurons) [fold change] | ATG3 level (primary cortical neurons) [fold change] | ATG5 level (primary cortical neurons) [fold change] | ATG12–ATG5 level (primary cortical neurons) [fold change] | ATG14 level (primary cortical neurons) [fold change] | LAMP2 level (primary cortical neurons) [fold change] | LC3-I level (primary cortical neurons) [fold change] | LC3-II level (primary cortical neurons) [fold change] | ULK1/Atg1 level (primary cortical neurons) [fold change] | ATG1-ULK1 kinase complex level (SH-SY5Y cells; western immunoblot vs control) | EEA1 level (SH-SY5Y cells; western immunoblot vs control) | RAB5 level (SH-SY5Y cells; western immunoblot vs control) | RAB7 level (SH-SY5Y cells; western immunoblot vs control) | further results
non-phosphorylated amyloid-β [npAβ, reference compound] | 1.08 ± 0.07 | 0.99 ± 0.06 | 1.22 ± 0.15 | 1.08 ± 0.07 | 1.1 ± 0.08 | 1.47 ± 0.22 | 1.19 ± 0.02 | 1.36 ± 0.19 | 1.23 ± 0.21 | 1.08 ± 0.11 | 1.04 ± 0.09 | 1.27 ± 0.08 | 1.16 ± 0.08 | 1.37 ± 0.06 | 1.48 ± 0.06 | 1.37 ± 0.35 | increased | no significant | no significant | no significant | ATG3 level (SH-SY5Y cells; western immunoblot vs control): not; RAB11 level (SH-SY5Y cells; western immunoblot vs control): smallest effect
amyloid-β phosphorylated at serine residue 26 [p-Ser26Aβ] | 1.46 ± 0.11 | 1.19 ± 0.05 | 1.28 ± 0.12 | 1.47 ± 0.11 | 1.25 ± 0.12 | 1.89 ± 0.06 | 1.41 ± 0.08 | 2.11 ± 0.4 | 1.38 ± 0.32 | 1.31 ± 0.11 | 1.43 ± 0.23 | 1.58 ± 0.17 | 1.23 ± 0.07 | 1.45 ± 0.12 | 1.42 ± 0.2 | 1.74 ± 0.36 | increased | no significant effect | increased | strongest effects | Intracellular levels of the ATP6V0A1 subunit of the V-ATPase (SH-SY5Y cells; PNS fraction): significantly increased levels; Levels of nuclear transcription factor EB (TFEB) (SH-SY5Y cells; nuclear material): significantly increased levels; CTSD level (SH-SY5Y cells; western immunoblot vs control): selectively increased; LAMP2 level (SH-SY5Y cells; western immunoblot vs control): selectively increased; RAB11 level (SH-SY5Y cells; western immunoblot vs control): strongest effects
amyloid-β phosphorylated at serine residue 8 [p-Ser8Aβ] | 0.94 ± 0.09 | 0.99 ± 0.04 | 1.65 ± 0.21 | 1.26 ± 0.09 | 0.95 ± 0.17 | 1.75 ± 0.29 | 1.49 ± 0.06 | 1.62 ± 0.14 | 1.23 ± 0.38 | 1.18 ± 0.1 | 1.18 ± 0.2 | 1.17 ± 0.05 | 0.97 ± 0.06 | 1.43 ± 0.15 | 1.95 ± 0.14 | 0.88 ± 0.22 | not | increased | increased |  | Levels of LC3-I and II (SH-SY5Y cells; western immunoblot, compared to control cells): significantly increased levels

— PMC10761119, “Phosphorylation-state dependent intraneuronal sorting of Aβ differentially impairs autophagy and the endo-lysosomal system” (Autophagy, 2023)
